According to patent publication US12053451B2, “Arginase inhibitors and their therapeutic applications” (OncoArendi Therapeutics S.A., priority 2016, dated 2024):
Structures can show the parent of a compound that is named as a salt.

Tests used:
[1] = target: T1, recombinant human arginase 1 (Homo sapiens, UniProt P05089); assay: Human arginase activity assay (urea measurement), arginase 1; format: biochemical; details: recombinant human arginase 1, pH 7.4, 37° C., 60 min; * = value for the most potent diastereoisomer or the mixture of diastereoisomers; read-out: Activity Class (ARG I)
T1 construct: purchased Biolegend 552502
T1 sequence (P05089 1-322): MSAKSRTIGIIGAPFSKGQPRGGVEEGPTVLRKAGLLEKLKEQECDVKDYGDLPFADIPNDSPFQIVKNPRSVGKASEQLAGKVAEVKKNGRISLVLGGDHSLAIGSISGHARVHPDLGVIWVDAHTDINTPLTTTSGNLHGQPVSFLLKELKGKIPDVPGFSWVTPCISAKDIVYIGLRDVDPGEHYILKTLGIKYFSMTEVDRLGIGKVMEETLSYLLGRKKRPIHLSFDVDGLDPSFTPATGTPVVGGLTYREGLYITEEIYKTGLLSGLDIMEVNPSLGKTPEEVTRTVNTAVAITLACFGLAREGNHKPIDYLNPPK
Experimental: (§1) Human Arginase Activity Assay
The assay was run in the 96-well plate format, each reaction in the total volume of 100 uL. The assay is based on urea measurement, which is a product of L-arginine enzymatic degradation. […] The color product is developed by adding a mixture of reagent A (4 mM oPA in 50 mM boric acid in 1M sulfuric acid, 0.03% Brij-35) and reagent B (4 mM NED in 50 mM boric acid in 1M sulfuric acid, 0.03% Brij-35) in equal proportions. The absorbance for each well was measured at 530 nm.
(§2) For positive control, only the enzyme and substrate were used, the negative controls contained substrate solution with assay buffer. After incubating the microtiter plate at 37° C. for 60 min 150 μL of mixed reagents A and B was added to each well to stop the reaction. Absorbance was measured (λ=530 nm) 20 minutes later, after color development. The urea production in the absence of any compound was considered the maximum arginase activity. The absorbance in the absence of arginase (background) was subtracted from all the values. The normalized OD was used to generate a concentration-response curve by plotting the percent of inhibition against log[concentration] of the compound and using regression analysis (GraphPad Prism 7.0) to compute the IC50 values.

[2] = target: T2, recombinant human arginase 2 (Homo sapiens, UniProt P78540); assay: Human arginase activity assay (urea measurement), arginase 2; format: biochemical; details: for selected examples class estimated from % of inhibition at 1 μM and 100 μM, * = most potent diastereoisomer or mixture of diastereoisomers, read-out: Activity Class (ARG II)
T2 construct: made in house; host or cells: CHO
T2 sequence (P78540 23-354): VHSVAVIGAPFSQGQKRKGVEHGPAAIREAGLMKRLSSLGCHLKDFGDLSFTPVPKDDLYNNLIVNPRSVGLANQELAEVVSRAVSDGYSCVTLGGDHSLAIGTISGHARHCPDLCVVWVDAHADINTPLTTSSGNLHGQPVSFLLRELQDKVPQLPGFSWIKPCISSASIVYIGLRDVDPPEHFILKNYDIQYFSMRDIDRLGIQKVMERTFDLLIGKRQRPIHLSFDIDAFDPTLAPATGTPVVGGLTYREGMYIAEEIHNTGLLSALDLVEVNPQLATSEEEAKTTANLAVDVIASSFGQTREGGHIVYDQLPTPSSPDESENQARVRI
Experimental: as §1
An enzymatic assay with recombinant human arginases 1 (Biolegend, Cat. No. 552502) and 2 (homemade in eukaryotic expression system of CHO, purified by FPLC) was used in order to assess inhibitory activity of the compounds. The assay was run in the 96-well plate format, each reaction in the total volume of 100 uL. The assay is based on urea measurement, which is a product of L-arginine enzymatic degradation. (Baggio et al. J Pharmacol. Exp. Ther. 1999, 290, 1409-1416). The color product is developed by adding a mixture of reagent A (4 mM oPA in 50 mM boric acid in 1M sulfuric acid, 0.03% Brij-35) and reagent B (4 mM NED in 50 mM boric acid in 1M sulfuric acid, 0.03% Brij-35) in equal proportions. The absorbance for each well was measured at 530 nm.
as §2, with “Briefly, to each well of a 96-well microtiter plate 40 μL of enzyme in the reaction assay buffer (pH 7.4, 100 mM sodium phosphate buffer, 130 mM NaCl, 1 mg/mL albumin), 50 μL of the test compound solution and 10 μL of enzyme substrate solution (L-arginine hydrochloride, natural pH 5.6, final concentration 20 mM and a cofactor—manganese chloride, final concentration 150 μM) was added. For” for “For”
(§3) For selected examples the activity class for ARG2 was estimated based on % of inhibition for 1 μM and 100 μM concentration of tested compounds.

[3] = target: T3, intracellular arginase in macrophages isolated from murine bone marrow (BMDM) (Mus musculus, UniProt Q61176); assay: Cell-based assay: intracellular arginase in bone marrow derived macrophages (BMDM), urea level; set-up: species or system Balb/c mice; details: murine BMDM with M-CSF and IL-4, urea measured 24 hours after compound; * = most potent diastereoisomer or mixture of diastereoisomers; read-out: Activity Class (BMDM)
T3 construct: endogenous in cells; host or cells: primary bone marrow derived macrophages from Balb/c mice, M-CSF and IL-4 treated
T3 sequence (Q61176 1-323): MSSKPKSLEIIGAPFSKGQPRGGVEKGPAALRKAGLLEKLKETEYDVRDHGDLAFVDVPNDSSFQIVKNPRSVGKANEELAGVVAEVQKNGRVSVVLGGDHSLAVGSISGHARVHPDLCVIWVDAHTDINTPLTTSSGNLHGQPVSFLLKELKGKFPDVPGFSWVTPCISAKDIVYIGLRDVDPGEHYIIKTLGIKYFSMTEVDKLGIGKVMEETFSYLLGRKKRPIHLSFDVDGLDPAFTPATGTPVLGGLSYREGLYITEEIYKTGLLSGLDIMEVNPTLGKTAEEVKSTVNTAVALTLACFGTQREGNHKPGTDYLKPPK
Experimental: Efficacy of Selected Examples Towards Intracellular Arginase in Macrophages Isolated from Murine Bone Marrow—Bone Marrow Derived Macrophages (BMDM)
Materials & Methods: The assay was performed according to modified literature protocol modification (Pineda-Torra I et al., Methods Mol Biol. 2015; 1339:101-9. Mia S et al. Scand J Immunol. 2014 May; 79(5):305-14). The femurs and tibias were isolated from Balb/c mice. Bones were cleaned from all attached tissues by using sterile swab without affecting the bone structure. Bones were sterilized by immersion in 70% ethanol for 5 min and then rinsed in PBS. The sides of the bones were cut off and flush with cold sterile PBS by using 26-G needle S into a 50 mL sterile tube with a cell strainer (Falcon™, Cat. No. U00149), until bone cavity appeared white. Then the cells were centrifuged (5 min at 500×G, 4° C.), washed twice with PBS and counted. Cells were plated in Petri dish in density of 1×10^6/mL and cultured in DMEM (Gibco, Cat. No. 31331-029) with 10% FBS, 1% pen-strep and 50 ng/mL M-CSF (PeproTech, Cat. No. 315-02), (37° C., 5% CO2). After five days cells were subcultured into P96 plate (BD, Cat. No. 353072) in density of 64 000 cells/well in medium supplemented with 50 ng/mL M-CSF and 20 ng/mL IL-4 (Biomibo Cat. No. 214-1). One day later exemplary compounds (dissolved in PBS) were added in several different concentrations and 24 hours later the level of urea was measured in each well (Jung D et al., Clin Chem. 1975, 21(8):1136-40). The concentration of urea in the absence of any compound was considered as the maximum. The absorbance of cell culture media (background) was subtracted from all the values.
as §3

Row | SMILES | IC50 [1] | IC50 [2] | IC50 [3]
1 | N[C@@]1(C(=O)O)C[C@H](CCB(O)O)CC[C@@H]1O (racemic) [Example 15, rac-(1S,2S,5R)-1-Amino-5-(2-boronoethyl)-2-hydroxycyclohexane-1-carboxylic acid hydrochloride] | > 100000 nM | > 100 µM | 
2 | NC1(C(=O)O)C[C@H](CCB(O)O)CC[C@@H]1O (mixture of isomers) [Example 16, rac-(2S,5R)-1-Amino-5-(2-boronoethyl)-2-hydroxycyclohexane-1-carboxylic acid hydrochloride] | 10000 to 100000 nM | 10 to 100 µM | 
3 | CN(C)C[C@@H]1CC[C@@H](CCB(O)O)C[C@@]1(N)C(=O)O (racemic) [Example 19, rac-(1S,2S,5R)-1-amino-5-(2-boronoethyl)-2-((dimethylamino)methyl)cyclohexane-1-carboxylic acid dihydrochloride] | 1000 to 10000 nM | 1 to 10 µM | 
4 | CC(C)N(C)C[C@@H]1CC[C@@H](CCB(O)O)C[C@]1(N)C(=O)O (racemic) [Example 32, rac-(1R,2S,5R)-1-amino-5-(2-boronoethyl)-2-((isopropyl(methyl)amino)methyl)cyclohexanecarboxylic acid] | 100 to 1000 nM |  | 100 to 1000 nM
5 | CC(C)(C)NC[C@@H]1CC[C@@H](CCB(O)O)C[C@]1(N)C(=O)O (racemic) [Example 33, rac-(1R,2S,5R)-1-amino-5-(2-boronoethyl)-2-((tert-butylamino)methyl)cyclohexanecarboxylic acid dihydrochloride] | 1 to 100 nM |  | 100 to 1000 nM
6 | N[C@]1(C(=O)O)C[C@H](CCB(O)O)CC[C@H]1CN1C2CCC1CC2 (racemic) [Example 34, rac-(1R,2S,5R)-2-(7-azabicyclo[2.2.1]heptan-7-ylmethyl)-1-amino-5-(2-boronoethyl)cyclohexanecarboxylic acid dihydrochloride] | 1 to 100 nM |  | 100 to 1000 nM
7 | N[C@]1(C(=O)O)C[C@H](CCB(O)O)CC[C@H]1CNCC(F)(F)F (racemic) [Example 36, rac-(1R,2S,5R)-1-amino-5-(2-boronoethyl)-2-(((2,2,2-trifluoroethyl)amino)methyl)cyclohexanecarboxylic acid dihydrochloride] | > 100000 nM | 0.1 to 1 µM | 
8 | COc1ccc(N(C)C[C@@H]2CC[C@@H](CCB(O)O)C[C@]2(N)C(=O)O)cc1 (racemic) [Example 37, rac-(1R,2S,5R)-1-amino-5-(2-boronoethyl)-2-(((4-methoxyphenyl)(methyl)amino)methyl)cyclohexanecarboxylic acid dihydrochloride] | 1000 to 10000 nM | 1 to 10 µM | 
9 | CN(C[C@@H]1CC[C@@H](CCB(O)O)C[C@]1(N)C(=O)O)c1ccccc1 (racemic) [Example 40, rac-(1R,2S,5R)-1-amino-5-(2-boronoethyl)-2-((methyl(phenyl)amino)methyl)cyclohexanecarboxylic acid dihydrochloride] | 1000 to 10000 nM | 1 to 10 µM | 
10 | CN1C[C@@H](CCB(O)O)C[C@](N)(C(=O)O)C1 (racemic) [Example 59, rac-(3R,5S)-3-amino-5-(2-boronoethyl)-1-methylpiperidine-3-carboxylic acid] | 1000 to 10000 nM | 1 to 10 µM | 
11 | CN(C)CCC1CC[C@@H](CCB(O)O)CC1(N)C(=O)O (single isomer, unassigned) [Example 47, dihydrochloride] | 100 to 1000 nM | 0.001 to 0.1 µM | 
12 | NC1(C(=O)O)CC(CCB(O)O)CCC1(O)Cc1ccc(Cl)cc1 (single isomer, unassigned) [Example 52, 1-amino-5-(2-boronoethyl)-2-(4-chlorobenzyl)-2-hydroxycyclohexanecarboxylic acid hydrochloride] | 10000 to 100000 nM | 10 to 100 µM | 
13 | NC1(C(=O)O)CNC(CCB(O)O)C1 (centres unmarked) [Example 9, 3-Amino-5-(2-boronoethyl)pyrrolidine-3-carboxylic acid dihydrochloride] | > 100000 nM | > 100 µM | 
14 | NC1(C(=O)O)CCCCC(CCB(O)O)C1 (centres unmarked) [Example 12, 1-Amino-3-(2-boronoethyl)cycloheptane-1-carboxylic acid hydrochloride] | > 100000 nM | > 100 µM | 
15 | CN(Cc1ccccc1)CC1CCC(CCB(O)O)CC1(N)C(=O)O (centres unmarked) [Example 21, 1-Amino-2-((benzyl(methyl)amino)methyl)-5-(2-boronoethyl)cyclohexane-1-carboxylic acid dihydrochloride] | 100 to 1000 nM | 1 to 10 µM | 
16 | CC1=CCC(CCB(O)O)CC1(N)C(=O)O (centres unmarked) [Example 51, 1-amino-5-(2-boronoethyl)-2-methylcyclohex-2-enecarboxylic acid hydrochloride] | 100 to 1000 nM | 1 to 10 µM | 
